ChEMBL document CHEMBL3885881, “DrugMatrix”

Species: Rattus norvegicus
Experiment: DrugMatrix - Regimen: Daily Repeat
Format: toxicity, organism-based, Sprague-Dawley
Set-up: regimen Daily Repeat, gender Male, age 6-8 weeks
Settings: in vivo, po, route oral GAVAGE, vehicle 100 % WATER; for ABSOLUTE BASOPHIL / ABSOLUTE EOSINOPHIL / ABSOLUTE LYMPHOCYTE / ABSOLUTE MONOCYTE / ABSOLUTE SEGMENTED NEUTROPHIL / BASOPHIL / EOSINOPHIL / ERYTHROCYTE COUNT / HEMATOCRIT / HEMOGLOBIN / LEUKOCYTE COUNT / LYMPHOCYTE / MEAN CORPUSCULAR HEMOGLOBIN / MEAN CORPUSCULAR HEMOGLOBIN CONCENTRATION / MEAN CORPUSCULAR VOLUME / MONOCYTE / NEUTROPHIL / NUCLEATED RED BLOOD CELLS / PLATELET COUNT: tissue Blood; for ALANINE AMINOTRANSFERASE / ALBUMIN / ALKALINE PHOSPHATASE / ASPARTATE AMINOTRANSFERASE / BLOOD UREA NITROGEN / CARBON DIOXIDE / CHLORIDE / CHOLESTEROL / CREATINE PHOSPHOKINASE / CREATININE / GLUCOSE / LACTATE DEHYDROGENASE / LIPASE / PHOSPHORUS / POTASSIUM / SODIUM / TOTAL BILIRUBIN / TOTAL PROTEIN / URIC ACID: tissue Plasma
[1] = 120 mg/kg, 120 h, dose level Low, time 5 day
[2] = 1695 mg/kg, 72 h, dose level High, time 3 day
[3] = 1695 mg/kg, 120 h, dose level High, time 5 day

Nc1ccc(S(=O)(=O)Nc2ccnn2-c2ccccc2)cc1 [SULFAPHENAZOLE]
ABSOLUTE BASOPHIL [1]: 0 CELLS/uL | ABSOLUTE EOSINOPHIL [1]: 0 CELLS/uL | ABSOLUTE LYMPHOCYTE [1]: 12168 CELLS/uL | ABSOLUTE MONOCYTE [1]: 171.33 CELLS/uL | ABSOLUTE SEGMENTED NEUTROPHIL [1]: 1260.67 CELLS/uL | BASOPHIL [1]: 0% | EOSINOPHIL [1]: 0% | ERYTHROCYTE COUNT [1]: 5.32 x10E6/uL | HEMATOCRIT [1]: 32.93% | HEMOGLOBIN [1]: 13.2 G/DL | LEUKOCYTE COUNT [1]: 13.6 x10E3/uL | LYMPHOCYTE [1]: 88.67% | MEAN CORPUSCULAR HEMOGLOBIN [1]: 24.8 pg | MEAN CORPUSCULAR HEMOGLOBIN CONCENTRATION [1]: 40.07 G/DL | MEAN CORPUSCULAR VOLUME [1]: 61.87 fL | MONOCYTE [1]: 1.33% | NEUTROPHIL [1]: 10% | NUCLEATED RED BLOOD CELLS [1]: 0 /100WBC | PLATELET COUNT [1]: 1135.33 x10E3/uL | ALANINE AMINOTRANSFERASE [1]: 44 u/L | ALBUMIN [1]: 4.37 G/DL | ALKALINE PHOSPHATASE [1]: 314.33 u/L | ASPARTATE AMINOTRANSFERASE [1]: 85.33 u/L | BLOOD UREA NITROGEN [1]: 17.67 mg/dL | CARBON DIOXIDE [1]: 25 mmol/L | CHLORIDE [1]: 101.67 MEQ/L | CHOLESTEROL [1]: 55.33 mg/dL | CREATINE PHOSPHOKINASE [1]: 560.67 u/L | CREATININE [1]: 0.19 mg/dL | GLUCOSE [1]: 147.33 mg/dL | LACTATE DEHYDROGENASE [1]: 243.67 u/L | LIPASE [1]: 10.67 u/L | PHOSPHORUS [1]: 11.43 mg/dL | POTASSIUM [1]: 6.3 MEQ/L | SODIUM [1]: 141.23 MEQ/L | TOTAL BILIRUBIN [1]: 0.17 mg/dL | TOTAL PROTEIN [1]: 5.93 G/DL | URIC ACID [1]: 1.83 mg/dL | ABSOLUTE BASOPHIL [2]: 0 CELLS/uL | ABSOLUTE EOSINOPHIL [2]: 148.67 CELLS/uL | ABSOLUTE LYMPHOCYTE [2]: 12946.33 CELLS/uL | ABSOLUTE MONOCYTE [2]: 179 CELLS/uL | ABSOLUTE SEGMENTED NEUTROPHIL [2]: 1226 CELLS/uL | BASOPHIL [2]: 0% | EOSINOPHIL [2]: 1% | ERYTHROCYTE COUNT [2]: 6.24 x10E6/uL | HEMATOCRIT [2]: 37.43% | HEMOGLOBIN [2]: 14.4 G/DL | LEUKOCYTE COUNT [2]: 14.5 x10E3/uL | LYMPHOCYTE [2]: 89.33% | MEAN CORPUSCULAR HEMOGLOBIN [2]: 23.1 pg | MEAN CORPUSCULAR HEMOGLOBIN CONCENTRATION [2]: 38.5 G/DL | MEAN CORPUSCULAR VOLUME [2]: 60.03 fL | MONOCYTE [2]: 1.33% | NEUTROPHIL [2]: 8.33% | NUCLEATED RED BLOOD CELLS [2]: 0.33 /100WBC | PLATELET COUNT [2]: 1221 x10E3/uL | ALANINE AMINOTRANSFERASE [2]: 93.67 u/L | ALBUMIN [2]: 4.27 G/DL | ALKALINE PHOSPHATASE [2]: 470.33 u/L | ASPARTATE AMINOTRANSFERASE [2]: 97.33 u/L | BLOOD UREA NITROGEN [2]: 20 mg/dL | CARBON DIOXIDE [2]: 28.67 mmol/L | CHLORIDE [2]: 98 MEQ/L | CHOLESTEROL [2]: 66 mg/dL | CREATINE PHOSPHOKINASE [2]: 349 u/L | CREATININE [2]: 0.24 mg/dL | GLUCOSE [2]: 138 mg/dL | LACTATE DEHYDROGENASE [2]: 231 u/L | LIPASE [2]: 12 u/L | PHOSPHORUS [2]: 11.17 mg/dL | POTASSIUM [2]: 6.38 MEQ/L | SODIUM [2]: 138.87 MEQ/L | TOTAL BILIRUBIN [2]: 0.17 mg/dL | TOTAL PROTEIN [2]: 5.9 G/DL | URIC ACID [2]: 1.43 mg/dL | ABSOLUTE BASOPHIL [3]: 0 CELLS/uL | ABSOLUTE EOSINOPHIL [3]: 0 CELLS/uL | ABSOLUTE LYMPHOCYTE [3]: 12966.33 CELLS/uL | ABSOLUTE MONOCYTE [3]: 311 CELLS/uL | ABSOLUTE SEGMENTED NEUTROPHIL [3]: 1656 CELLS/uL | BASOPHIL [3]: 0% | EOSINOPHIL [3]: 0% | ERYTHROCYTE COUNT [3]: 5.99 x10E6/uL | HEMATOCRIT [3]: 35.5% | HEMOGLOBIN [3]: 13.53 G/DL | LEUKOCYTE COUNT [3]: 14.93 x10E3/uL | LYMPHOCYTE [3]: 86.67% | MEAN CORPUSCULAR HEMOGLOBIN [3]: 22.57 pg | MEAN CORPUSCULAR HEMOGLOBIN CONCENTRATION [3]: 38.1 G/DL | MEAN CORPUSCULAR VOLUME [3]: 59.27 fL | MONOCYTE [3]: 2% | NEUTROPHIL [3]: 11.33% | NUCLEATED RED BLOOD CELLS [3]: 0 /100WBC | PLATELET COUNT [3]: 1318 x10E3/uL | ALANINE AMINOTRANSFERASE [3]: 117.33 u/L | ALBUMIN [3]: 4.47 G/DL | ALKALINE PHOSPHATASE [3]: 435.33 u/L | ASPARTATE AMINOTRANSFERASE [3]: 99.67 u/L | BLOOD UREA NITROGEN [3]: 16.33 mg/dL | CARBON DIOXIDE [3]: 25 mmol/L | CHLORIDE [3]: 99 MEQ/L | CHOLESTEROL [3]: 48 mg/dL | CREATINE PHOSPHOKINASE [3]: 444.33 u/L | CREATININE [3]: 0.22 mg/dL | GLUCOSE [3]: 150.33 mg/dL | LACTATE DEHYDROGENASE [3]: 121.33 u/L | LIPASE [3]: 12 u/L | PHOSPHORUS [3]: 11.27 mg/dL | POTASSIUM [3]: 5.55 MEQ/L | SODIUM [3]: 141.73 MEQ/L | TOTAL BILIRUBIN [3]: 0.23 mg/dL | TOTAL PROTEIN [3]: 5.87 G/DL | URIC ACID [3]: 1.37 mg/dL
